For 21 compounds, IC50 results are on record in patent publication US20230374015A1, “INHIBITORS OF FIBROBLAST GROWTH FACTOR RECEPTOR KINASES” (Kinnate Biopharma Inc., priority 2020, published 2023).

Each structure is given as a SMILES string. Where a name gives a salt, the structure may show the parent alone. Bounds are passed on as bounds.

This assay has as its target FGFR2 (Homo sapiens, UniProt P21802). The assay can be described thus: FGFR2 Kinase Protocol - Condition 2 (Reaction Biology HotSpot radiometric kinase assay, no preincubation). The assay is classed as biochemical. As to conditions: poly[Glu:Tyr] (4:1) 0.2 mg/ml, ATP 100 microM, 2 hr room temperature. On the procedure:
Example 2: FGFR2 Kinase Protocol—Condition 2
The Reaction Biology HotSpot assay platform (http://www.reactionbiology.com) was used to measure kinase/inhibitor interactions as described previously (Anastassiadis et al., 2011). In brief, for each reaction, kinase and substrate were mixed in a buffer containing 20 mM HEPES (pH 7.5), 10 mM MgCl2, 1 mM EGTA, 0.02% Brij35, 0.02 mg/mL BSA, 0.1 mM Na3VO4, 2 mM DTT, and 1% DMSO. All compounds were in powder form and freshly solubilized in DMSO for assays. Compounds were then added to each reaction mixture via acoustic dispense using an ECHO 550 nanoliter dispenser. For Human FGFR2 wildtype testing, a peptide substrate, poly[Glu:Tyr] (4:1) was used to promote the reaction at a concentration of 0.2 mg/ml. For Human FGFR2 (V564F) testing, a peptide substrate, poly[Glu:Tyr] (4:1) was used to promote the reaction at a concentration of 0.2 mg/ml. ATP concentration for all assays was maintained at 100 micromolar. Compounds were tested in 10-dose IC50 mode with a 3-fold serial dilution. Compounds were added to plates and ATP was added directly to the wells. ATP (Sigma-Aldrich, St. Louis, MO 63178) and [g33P] ATP (specific activity 10 microCi/microliter) purchased at PerkinElmer (Boston, MA, 02118 Cat #BLU 003H250UC) were added at a final total concentration of 100 microM to each well with no preincubation. Reactions were carried out at room temperature for 2 hr and spotted onto P81 ion exchange cellulose chromatography paper (Reaction Biology). Filter paper was washed in 0.75% phosphoric acid to remove unincorporated ATP. The percent remaining kinase activity relative to a vehicle-containing (DMSO) kinase reaction was calculated for each kinase/inhibitor pair. IC50 values were calculated using Dotmatics Knowledge Solutions Studies curve fitting (Dotmatics, Bishops Stortford, UK, CM23).

Chain of FGFR2 (P21802 22-821): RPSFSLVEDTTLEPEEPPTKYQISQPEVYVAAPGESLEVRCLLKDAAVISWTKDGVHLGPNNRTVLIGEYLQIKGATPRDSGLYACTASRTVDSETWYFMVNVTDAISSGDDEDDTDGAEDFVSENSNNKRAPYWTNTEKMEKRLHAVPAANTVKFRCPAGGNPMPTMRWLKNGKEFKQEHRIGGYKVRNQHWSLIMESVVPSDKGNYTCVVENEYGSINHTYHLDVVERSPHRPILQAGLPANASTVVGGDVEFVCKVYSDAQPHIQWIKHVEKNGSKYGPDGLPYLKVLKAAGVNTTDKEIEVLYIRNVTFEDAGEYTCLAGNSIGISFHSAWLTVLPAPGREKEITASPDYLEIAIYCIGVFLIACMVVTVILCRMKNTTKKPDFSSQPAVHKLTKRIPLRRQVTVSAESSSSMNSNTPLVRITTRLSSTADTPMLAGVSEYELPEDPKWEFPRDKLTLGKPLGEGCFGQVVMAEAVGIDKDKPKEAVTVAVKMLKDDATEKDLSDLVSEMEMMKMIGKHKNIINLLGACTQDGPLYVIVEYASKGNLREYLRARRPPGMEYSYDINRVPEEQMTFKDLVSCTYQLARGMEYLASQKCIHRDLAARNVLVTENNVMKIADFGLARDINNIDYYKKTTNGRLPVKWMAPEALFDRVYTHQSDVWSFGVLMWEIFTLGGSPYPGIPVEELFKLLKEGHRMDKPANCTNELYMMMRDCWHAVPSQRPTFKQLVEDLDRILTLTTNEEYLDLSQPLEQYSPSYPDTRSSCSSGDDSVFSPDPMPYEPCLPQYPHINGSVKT

`C=CC(=O)N1C[C@@H](n2nc(C#Cc3c(F)cc4c(cnn4C)c3F)c3c(N)nccc32)C[C@@H]1COC` [Example 50, 1-((2R,4S)-4-(4-amino-3-((4,6-difluoro-1-methyl-1H-indazol-5-yl)ethynyl)-1H-pyrazolo[4,3-c]pyridin-1-yl)-2-(methoxymethyl)pyrrolidin-1-yl)prop-2-en-1-one]: the IC50 was not above 0.1 µM. The same measure for `C=CC(=O)N1C[C@@H](n2nc(C#Cc3c(F)cc4nn(CC)cc4c3F)c3c(N)nccc32)C[C@@H]1COC` [Example 51, 1-((2R,4S)-4-(4-amino-3-((2-ethyl-4,6-difluoro-2H-indazol-5-yl)ethynyl)-1H-pyrazolo[4,3-c]pyridin-1-yl)-2-(methoxymethyl)pyrrolidin-1-yl)prop-2-en-1-one]: 0.1 to 1 µM. The same measure for `C=CC(=O)N1C[C@@H](n2nc(C#Cc3ccc4c(c3)nc(C)n4CC)c3c(N)ncnc32)C[C@@H]1CC#N` [Example 52, 2-((2R,4S)-1-acryloyl-4-(4-amino-3-((1-ethyl-2-methyl-1H-benzo[d]imidazol-5-yl)ethynyl)-1H-pyrazolo[3,4-d]pyrimidin-1-yl)pyrrolidin-2-yl)acetonitrile]: not above 0.1 µM; for `C=CC(=O)N1C[C@@H](n2nc(C#Cc3ccc4c(c3)nc(C)n4CC)c3c(N)nccc32)C[C@@H]1CC#N` [Example 53, 2-[(2R,4S)-4-[4-Amino-3-[2-(1-ethyl-2-methyl-1,3-benzodiazol-5-yl)ethynyl]pyrazolo[4,3-c]pyridin-1-yl]-1-(prop-2-enoyl)pyrrolidin-2-yl]acetonitrile; formic acid]: not above 0.1 µM. In turn, `C=CC(=O)N1C[C@@H](n2nc(C#Cc3c(F)cc4c(ncn4C)c3F)c3c(N)ncnc32)C[C@@H]1COC(F)(F)F` [Example 54, 1-[(2R,4S)-4-[4-Amino-3-[2-(4,6-difluoro-1-methyl-1,3-benzodiazol-5-yl)ethynyl]pyrazolo[3,4-d]pyrimidin-1-yl]-2-[(trifluoromethoxy)methyl]pyrrolidin-1-yl]prop-2-en-1-one] came in with an IC50 not above 0.1 µM.

`C=CC(=O)N1C[C@@H](n2nc(C#Cc3c(F)cc4c(ncn4C)c3F)c3c(N)ncnc32)C[C@@H]1COC` [Example 55, 1-[(2R,4S)-4-[4-Amino-3-[2-(4,6-difluoro-1-methyl-1,3-benzodiazol-5-yl)ethynyl]pyrazolo[3,4-d]pyrimidin-1-yl]-2-(methoxymethyl)pyrrolidin-1-yl] prop-2-en-1-one] registered an IC50 not above 0.1 µM. The result for `C=CC(=O)N1C[C@@H](n2nc(C#Cc3ccc4c(c3)ncn4C)c3c(N)ncnc32)C[C@@H]1COC(F)(F)F` [Example 56, 1-((2R,4S)-4-(4-Amino-3-((1-methyl-1H-benzo[d]imidazol-5-yl)ethynyl)-1H-pyrazolo[3,4-d]pyrimidin-1-yl)-2-((trifluoromethoxy)methyl)pyrrolidin-1-yl)prop-2-en-1-one] reads not above 0.1 µM; that for `C=CC(=O)N1C[C@@H](n2nc(C#Cc3cc4ncn(C)c4cc3F)c3c(N)ncnc32)C[C@@H]1COC(F)(F)F` [Example 57, 1-[(2R,4S)-4-[4-Amino-3-[2-(6-fluoro-1-methyl-1,3-benzodiazol-5-yl)ethynyl]pyrazolo[3,4-d]pyrimidin-1-yl]-2-[(trifluoromethoxy)methyl]pyrrolidin-1-yl]prop-2-en-1-one], not above 0.1 µM. Regarding `C=CC(=O)N1C[C@@H](n2nc(C#Cc3ccc4c(c3)ncn4C)c3c(N)nccc32)C[C@@H]1COC(F)(F)F` [Example 58, 1-((2R,4S)-4-(4-Amino-3-((1-methyl-1H-benzo[d]imidazol-5-yl)ethynyl)-1H-pyrazolo[4,3-c]pyridin-1-yl)-2-((trifluoromethoxy)methyl)pyrrolidin-1-yl)prop-2-en-1-one formate], the IC50 was not above 0.1 µM.

In the case of `C=CC(=O)N1C[C@@H](n2nc(C#Cc3cc4ncn(C)c4cc3F)c3c(N)nccc32)C[C@@H]1COC(F)(F)F` [Example 59, 1-((2R,4S)-4-(4-amino-3-((6-fluoro-1-methyl-1H-benzo[d]imidazol-5-yl)ethynyl)-1H-pyrazolo[4,3-c]pyridin-1-yl)-2-((trifluoromethoxy)methyl)pyrrolidin-1-yl)prop-2-en-1-one formate], the IC50 is not above 0.1 µM. Regarding `C=CC(=O)N1C[C@@H](n2nc(C#Cc3c(F)cc4c(ncn4C)c3F)c3c(N)nccc32)C[C@@H]1COC(F)(F)F` [Example 60, 1-[(2R,4S)-4-[4-Amino-3-[2-(4,6-difluoro-1-methyl-1,3-benzodiazol-5-yl)ethynyl]pyrazolo[4,3-c]pyridin-1-yl]-2-[(trifluoromethoxy)methyl]pyrrolidin-1-yl]prop-2-en-1-one], the IC50 is not above 0.1 µM.

With `C=CC(=O)N1C[C@@H](n2cc(C#Cc3c(F)cc4c(ncn4C)c3F)c3c(N)ncnc32)C[C@@H]1COC` [Example 61, 1-[(2R,4S)-4-[4-Amino-5-[2-(4,6-difluoro-1-methyl-1,3-benzodiazol-5-yl)ethynyl]pyrrolo[2,3-d]pyrimidin-7-yl]-2-(methoxymethyl)pyrrolidin-1-yl]prop-2-en-1-one], the IC50 was not above 0.1 µM. The result for `C=CC(=O)N1C[C@@H](n2nc(C#Cc3cc4ncn(C)c4cc3F)c3c(N)ncnc32)C[C@@H]1COC` [Example 62, 1-[(2R,4S)-4-[4-Amino-3-[2-(6-fluoro-1-methyl-1,3-benzodiazol-5-yl)ethynyl]pyrazolo[3,4-d]pyrimidin-1-yl]-2-(methoxymethyl)pyrrolidin-1-yl]prop-2-en-1-one] reads not above 0.1 µM; that for `C=CC(=O)N1C[C@@H](n2cc(C#Cc3cc4ncn(C)c4cc3F)c3c(N)ncnc32)C[C@@H]1COC` [Example 63, 1-[(2R,4S)-4-[4-Amino-5-[2-(6-fluoro-1-methyl-1,3-benzodiazol-5-yl)ethynyl]pyrrolo[2,3-d]pyrimidin-7-yl]-2-(methoxymethyl)pyrrolidin-1-yl]prop-2-en-1-one], not above 0.1 µM. Take `C=CC(=O)N1C[C@@H](n2nc(C#Cc3c(F)cc4c(ncn4C(F)F)c3F)c3c(N)ncnc32)C[C@@H]1COC` [Example 64, 1-[(2R,4S)-4-(4-Amino-3-[2-[1-(difluoromethyl)-4,6-difluoro-1,3-benzodiazol-5-yl]ethynyl]pyrazolo[3,4-d]pyrimidin-1-yl)-2-(methoxymethyl)pyrrolidin-1-yl]prop-2-en-1-one]: the IC50 is not above 0.1 µM. `C=CC(=O)N1C[C@@H](n2nc(C#Cc3c(F)cc4c(ncn4C(F)F)c3F)c3c(N)nccc32)C[C@@H]1COC` [Example 65, 1-[(2R,4S)-4-(4-Amino-3-[2-[1-(difluoromethyl)-4,6-difluoro-1,3-benzodiazol-5-yl]ethynyl]pyrazolo[4,3-c]pyridin-1-yl)-2-(methoxymethyl)pyrrolidin-1-yl]prop-2-en-1-one] had an IC50 not above 0.1 µM. The result for `C=CC(=O)N1C[C@@H](n2cc(C#Cc3ccc4c(c3)ncn4C)c3c(N)ncnc32)C[C@@H]1COC(F)(F)F` [Example 66, 1-[(2R,4S)-4-[4-Amino-5-[2-(1-methyl-1,3-benzodiazol-5-yl)ethynyl]pyrrolo[2,3-d]pyrimidin-7-yl]-2-[(trifluoromethoxy)methyl]pyrrolidin-1-yl]prop-2-en-1-one] reads not above 0.1 µM; that for `C=CC(=O)N1C[C@@H](n2cc(C#Cc3cc4ncn(C)c4cc3F)c3c(N)ncnc32)C[C@@H]1COC(F)(F)F` [Example 67, 1-((2R,4S)-4-(4-Amino-5-((6-fluoro-1-methyl-1H-benzo[d]imidazol-5-yl)ethynyl)-7H-pyrrolo[2,3-d]pyrimidin-7-yl)-2-((trifluoromethoxy)methyl)pyrrolidin-1-yl)prop-2-en-1-one], not above 0.1 µM. With `C=CC(=O)N1C[C@@H](n2cc(C#Cc3c(F)cc4c(ncn4C)c3F)c3c(N)ncnc32)C[C@@H]1COC(F)(F)F` [Example 68, 1-((2R,4S)-4-(4-Amino-5-((4,6-difluoro-1-methyl-1H-benzo[d]imidazol-5-yl)ethynyl)-7H-pyrrolo[2,3-d]pyrimidin-7-yl)-2-((trifluoromethoxy)methyl)pyrrolidin-1-yl)prop-2-en-1-one], the IC50 is not above 0.1 µM. Compound `C=CC(=O)N1C[C@@H](n2cc(C#Cc3c(F)cc4c(ncn4C(F)F)c3F)c3c(N)ncnc32)C[C@@H]1COC` [Example 69, 1-[(2R,4S)-4-(4-Amino-5-[2-[1-(difluoromethyl)-4,6-difluoro-1,3-benzodiazol-5-yl]ethynyl]pyrrolo[2,3-d]pyrimidin-7-yl)-2-(methoxymethyl)pyrrolidin-1-yl]prop-2-en-1-one] showed an IC50 not above 0.1 µM. The result for `C=CC(=O)N1C[C@@H](n2nc(C#Cc3c(F)cc4c(ncn4CC)c3F)c3c(N)ncnc32)C[C@@H]1COC(F)(F)F` [Example 70, 1-((2R,4S)-4-(4-Amino-3-((1-ethyl-4,6-difluoro-1H-benzo[d]imidazol-5-yl)ethynyl)-1H-pyrazolo[3,4-d]pyrimidin-1-yl)-2-((trifluoromethoxy)methyl)pyrrolidin-1-yl)prop-2-en-1-one] reads not above 0.1 µM.

What is called IC50 is the midpoint of a concentration-inhibition curve. A lower IC50 goes with inhibition by little substance.
